In brackets after ≈: the same amount, converted by molar mass. Activity calls are given as the source filed them. No cut-off for these calls is given here.
How the values were obtained:
A549 [1] = test: Cytotoxicity against human A549 cells incubated for 72 hrs by MTT assay; type: functional, cell-based; settings: A549, 72 h
[2] = test system: Staphylococcus epidermidis; test: Antimicrobial activity against Staphylococcus epidermidis ATCC 35984 incubated for 18 hrs by twofold microdilution method; type: functional
[3] = Selectivity index, ratio of IC50 for cytotoxicity against human HaCaT cells to IC50 for cytotoxicity against human SW620 cells; type: toxicity, cell-based; settings: HaCaT cells versus SW620 cells, read-out: Ratio IC50
A549 [4] = test: Induction of cell cycle arrest in human A549 cells assessed as change in cell population at IC50 incubated for 24 hrs by propidium iodide staining based flow cytometry analysis; type: functional
Staphylococcus aureus [5] = test: Antimicrobial activity against Staphylococcus aureus NCTC 4163 incubated for 18 hrs by twofold microdilution method; type: functional
Mitochondrial membrane [6] = test: Induction of mitochondrial membrane potential loss in human MDA-MB-231 cells assessed as red fluorescence at IC50 incubated for 48 hrs MitoTrackerRed CMXRos staining based flow cytometry analysis (reference value: 91.1 %); type: cell membranes
[7] = Selectivity index, ratio of IC50 for cytotoxicity against human HaCaT cells to IC50 for cytotoxicity against human PC-3 cells; type: toxicity, cell-based; settings: HaCaT cells versus PC-3 cells, read-out: Ratio IC50
A549 [8] = test: Induction of ROS generation of human A549 cells at IC50 incubated for 6 hrs by CellROX Green staining based spectrofluorometer analysis; type: functional, cell-based
Mitochondrial membrane [9] = test: Induction of mitochondrial membrane potential loss in human MDA-MB-231 cells assessed as green fluorescence at IC50 incubated for 48 hrs MitoTracker Green FM staining based flow cytometry analysis (reference value: 8.86 %); type: cell membranes
SW-620 = test: Cytotoxicity against human SW620 cells incubated for 72 hrs by MTT assay; type: functional, cell-based; settings: SW-620, 72 h
[10] = Cytotoxicity against chinese hamster V79 cells incubated for 72 hrs by MTT assay; type: toxicity, cell-based, Cricetulus griseus
A549 [11] = test: Induction of apoptosis in human A549 cells assessed as viable cells at IC50 incubated for 72 hrs by Annexin V-FITC staining based flow cytometry analysis (reference value: 95.49 %); type: functional
[12] = test system: Staphylococcus epidermidis; test: Antimicrobial activity against Staphylococcus epidermidis ATCC 12228 incubated for 18 hrs by twofold microdilution method; type: functional
MDA-MB-231 [13] = test: Induction of apoptosis in human MDA-MB-231 cells assessed as necrotic cells at IC50 incubated for 72 hrs by Annexin V-FITC staining based flow cytometry analysis (reference value: 1.17 %); type: functional
A549 [14] = test: Induction of apoptosis in human A549 cells assessed as necrotic cells at IC50 incubated for 72 hrs by Annexin V-FITC staining based flow cytometry analysis (reference value: 0.97 %); type: functional
Escherichia coli = test: Antimicrobial activity against Escherichia coli ATCC 25922 incubated for 18 hrs by twofold microdilution method; type: functional
A549 [15] = test: Effect on mitochondrial mass in human A549 cells assessed as increase in mean fluorescence intensity at IC50 incubated for 48 hrs by MitoTracker Green FM staining based flow cytometry analysis; type: functional, cell-based
MDA-MB-231 [16] = test: Induction of apoptosis in human MDA-MB-231 cells assessed as viable cells at IC50 incubated for 72 hrs by Annexin V-FITC staining based flow cytometry analysis (reference value: 91.53 %); type: functional
MDA-MB-231 [17] = test: Cytotoxicity against human MDA-MB-231 cells incubated for 72 hrs by MTT assay; type: functional, cell-based; settings: MDA-MB-231, 72 h
[18] = Selectivity index, ratio of IC50 for cytotoxicity against human HaCaT cells to IC50 for cytotoxicity against human A549 cells; type: toxicity, cell-based; settings: HaCaT cells versus A549 cells, read-out: Ratio IC50
Mitochondrial membrane [19] = test: Induction of mitochondrial membrane potential loss in human A549 cells assessed as green fluorescence at IC50 incubated for 48 hrs MitoTracker Green FM staining based flow cytometry analysis (reference value: 8.93 %); type: cell membranes
MDA-MB-231 [20] = test: Induction of apoptosis in human MDA-MB-231 cells assessed as early apoptotic cells at IC50 incubated for 72 hrs by Annexin V-FITC staining based flow cytometry analysis (reference value: 4.23 %); type: functional
[21] = Cytotoxicity against human HaCaT cells incubated for 72 hrs by MTT assay; type: toxicity, cell-based
MDA-MB-231 [22] = test: Effect on mitochondrial mass in human MDA-MB-231 cells assessed as increase in mean fluorescence intensity at IC50 incubated for 48 hrs by MitoTracker Green FM staining based flow cytometry analysis; type: functional, cell-based
[23] = Selectivity index, ratio of IC50 for cytotoxicity against chinese hamster V79 cells to IC50 for cytotoxicity against human A549 cells; type: toxicity, cell-based; settings: V79 cells versus A549 cells, read-out: Ratio IC50
MDA-MB-231 [24] = test: Induction of apoptosis in human MDA-MB-231 cells assessed as late apoptotic cells at IC50 incubated for 72 hrs by Annexin V-FITC staining based flow cytometry analysis (reference value: 3.07 %); type: functional
SW480 = test: Cytotoxicity against human SW480 cells incubated for 72 hrs by MTT assay; type: functional, cell-based; settings: SW480, 72 h
[25] = Selectivity index, ratio of IC50 for cytotoxicity against human HaCaT cells to IC50 for cytotoxicity against human SW480 cells; type: toxicity, cell-based; settings: HaCaT cells versus SW480 cells, read-out: Ratio IC50
Staphylococcus aureus [26] = test: Antimicrobial activity against Staphylococcus aureus ATCC 25923 incubated for 18 hrs by twofold microdilution method; type: functional
[27] = Selectivity index, ratio of IC50 for cytotoxicity against chinese hamster V79 cells to IC50 for cytotoxicity against human SW480 cells; type: toxicity, cell-based; settings: V79 cells versus SW480 cells, read-out: Ratio IC50
Pseudomonas aeruginosa = test: Antimicrobial activity against Pseudomonas aeruginosa ATCC 15442 incubated for 18 hrs by twofold microdilution method; type: functional
Staphylococcus aureus [28] = test: Antimicrobial activity against Staphylococcus aureus ATCC 29213 incubated for 18 hrs by twofold microdilution method; type: functional
[29] = Selectivity index, ratio of IC50 for cytotoxicity against chinese hamster V79 cells to IC50 for cytotoxicity against human MDA-MB-231 cells; type: toxicity, cell-based; settings: V79 cells versus MDA-MB-231 cells, read-out: Ratio IC50
[30] = Selectivity index, ratio of IC50 for cytotoxicity against chinese hamster V79 cells to IC50 for cytotoxicity against human SW620 cells; type: toxicity, cell-based; settings: V79 cells versus SW620 cells, read-out: Ratio IC50
A549 [31] = test: Induction of apoptosis in human A549 cells assessed as late apoptotic cells at IC50 incubated for 72 hrs by Annexin V-FITC staining based flow cytometry analysis (reference value: 1.86 %); type: functional
A549 [32] = test: Induction of apoptosis in human A549 cells assessed as early apoptotic cells at IC50 incubated for 72 hrs by Annexin V-FITC staining based flow cytometry analysis (reference value: 1.68 %); type: functional
[33] = Selectivity index, ratio of IC50 for cytotoxicity against human HaCaT cells to IC50 for cytotoxicity against human MDA-MB-231 cells; type: toxicity, cell-based; settings: HaCaT cells versus MDA-MB-231 cells, read-out: Ratio IC50
PC-3 = test: Cytotoxicity against human PC-3 cells incubated for 72 hrs by MTT assay; type: functional, cell-based; settings: PC-3, 72 h
[34] = Selectivity index, ratio of IC50 for cytotoxicity against chinese hamster V79 cells to IC50 for cytotoxicity against human PC-3 cells; type: toxicity, cell-based; settings: V79 cells versus PC-3 cells, read-out: Ratio IC50
Mitochondrial membrane [35] = test: Induction of mitochondrial membrane potential loss in human A549 cells assessed as red fluorescence at IC50 incubated for 48 hrs MitoTrackerRed CMXRos staining based flow cytometry analysis (reference value: 91.1 %); type: cell membranes
A549 [36] = test: Effect on mitochondrial function in human A549 cells assessed as change in mean fluorescence intensity at IC50 incubated for 48 hrs by MitoTracker Red CMXRos staining based flow cytometry analysis; type: functional, cell-based
MDA-MB-231 [37] = test: Induction of ROS generation of human MDA-MB-231 cells at IC50 incubated for 6 hrs by CellROX Green staining based spectrofluorometer analysis; type: functional, cell-based
Staphylococcus aureus [38] = test: Antimicrobial activity against Staphylococcus aureus ATCC 6538 incubated for 18 hrs by twofold microdilution method; type: functional
A549 [39] = test: Induction of mitochondrial respiration in human A549 cells assessed as decrease in oxygen consumption rate at 3 uM by Oxygraph-2K system; type: functional, cell-based
Lipid bilayer [40] = test: Induction of ionic transport in azolectin bilayer membrane assessed as membrane rupture in presence of HEPES buffer by electrophysiology technique
Lipid bilayer [41] = test: Induction of current generation in azolectin bilayer membrane in presence of HEPES buffer by electrophysiology technique
Lipid bilayer [42] = test: Induction of ionic transport in azolectin bilayer membrane assessed as irregular disturbance in membrane permeability in presence of HEPES buffer by electrophysiology technique
A549 [43] = test: Induction of mitochondrial respiration in human A549 cells assessed as fold increase in oxygen consumption rate at 1 uM by Oxygraph-2K system; type: functional
Lipid bilayer [44] = test: Induction of ionic transport in azolectin bilayer membrane assessed as specific channel-like structure formation in presence of HEPES buffer by electrophysiology technique

Q: Which results are given for `CC[C@@H](C(=O)[C@@H](C)[C@@H](O)[C@H](C)[C@@H]1O[C@@H]([C@@H](CC)C(=O)OCc2ccccc2)CC[C@@H]1C)[C@H]1O[C@]2(C=C[C@@H](O)[C@]3(CC[C@@](C)([C@H]4CC[C@](O)(CC)[C@H](C)O4)O3)O2)[C@H](C)C[C@@H]1C`?
A: IC50 (A549 [1]): 7520 nM; MIC [2]: > 256 µg/mL; selectivity ratio [3]: 1; Activity (A549 [4]): inactive; MIC (Staphylococcus aureus [5]): 64 µg/mL (≈ 76.1 µM); Activity (Mitochondrial membrane [6]): 79.7%; selectivity ratio [7]: 0.9; Activity (A549 [8]): Active; Slight Insignificant Increase In Ros Level Was Observed; Activity (Mitochondrial membrane [9]): 19.6%; IC50 (SW-620): 7770 nM; IC50 at 72 h [10]: 5830 nM; Activity (A549 [11]): 84.65%; MIC [12]: 64 µg/mL (≈ 76.1 µM); Activity (MDA-MB-231 [13]): 2.17%; Activity (A549 [14]): 2.02%; MIC (Escherichia coli): > 256 µg/mL; Activity (A549 [15]): Active; Slight Increase In Mfi Is Observed; Activity (MDA-MB-231 [16]): 83.92%; IC50 (MDA-MB-231 [17]): 16500 nM; selectivity ratio [18]: 1.1; Activity (Mitochondrial membrane [19]): 25.5%; Activity (MDA-MB-231 [20]): 6.5%; IC50 at 72 h [21]: 8000 nM; Activity (MDA-MB-231 [22]): Active; Slight Increase In Mfi Is Observed; selectivity ratio [23]: 0.8; Activity (MDA-MB-231 [24]): 7.41%; IC50 (SW480): 3480 nM; selectivity ratio [25]: 2.3; MIC (Staphylococcus aureus [26]): 64 µg/mL (≈ 76.1 µM); selectivity ratio [27]: 1.7; MIC (Pseudomonas aeruginosa): > 256 µg/mL; MIC (Staphylococcus aureus [28]): 64 µg/mL (≈ 76.1 µM); selectivity ratio [29]: 0.3; selectivity ratio [30]: 0.8; Activity (A549 [31]): 2.76%; Activity (A549 [32]): 10.57%; selectivity ratio [33]: 0.5; IC50 (PC-3): 8790 nM; selectivity ratio [34]: 0.7; Activity (Mitochondrial membrane [35]): 74.5%; Activity (A549 [36]): inactive; Activity (MDA-MB-231 [37]): Active; Slight Insignificant Increase In Ros Level Was Observed; MIC (Staphylococcus aureus [38]): 32 µg/mL (≈ 38 µM)

Q: What does the source list for `CC[C@@H](C(=O)[C@@H](C)[C@@H](O)[C@H](C)[C@@H]1O[C@@H]([C@@H](CC)C(=O)OCCCC[P+](c2ccccc2)(c2ccccc2)c2ccc(N(C)C)cc2)CC[C@@H]1C)[C@H]1O[C@]2(C=C[C@@H](O)[C@]3(CC[C@@](C)([C@H]4CC[C@](O)(CC)[C@H](C)O4)O3)O2)[C@H](C)C[C@@H]1C.[Br-]`?
A: Activity (A549 [39]): inactive; IC50 (A549 [1]): 750 nM; MIC [2]: 4 µg/mL; selectivity ratio [3]: 11.6; Activity (Lipid bilayer [40]): inactive; MIC (Staphylococcus aureus [5]): 2 µg/mL; selectivity ratio [7]: 0.5; IC50 (SW-620): 110 nM; IC50 at 72 h [10]: 370 nM; MIC [12]: 4 µg/mL; MIC (Escherichia coli): > 256 µg/mL; IC50 (MDA-MB-231 [17]): 780 nM; selectivity ratio [18]: 1.7; IC50 at 72 h [21]: 1280 nM; Activity (Lipid bilayer [41]): Dose-dependent-effect; selectivity ratio [23]: 0.5; IC50 (SW480): 570 nM; Activity (Lipid bilayer [42]): inactive; selectivity ratio [25]: 2.2; MIC (Staphylococcus aureus [26]): 4 µg/mL; selectivity ratio [27]: 0.6; fold change (FC) (A549 [43]): 2.5; MIC (Pseudomonas aeruginosa): > 256 µg/mL; MIC (Staphylococcus aureus [28]): 2 µg/mL; selectivity ratio [29]: 0.5; selectivity ratio [30]: 3.4; selectivity ratio [33]: 1.6; IC50 (PC-3): 2520 nM; selectivity ratio [34]: 0.1; Activity (Lipid bilayer [44]): inactive; MIC (Staphylococcus aureus [38]): 2 µg/mL

From ChEMBL document CHEMBL6120978, “Anticancer activity of salinomycin quaternary phosphonium salts” (Eur J Med Chem, 2025)
